From patent US20260374754A1, “N-((ISOQUINOLIN-6-YL)METHYL)-1H-PYRAZOLE-4-CARBOXAMIDE DERIVATIVES AS PLASMA KALLIKREIN INHIBITORS FOR THE TREATMENT OF HEREDITARY ANGIODEMA” (Takeda Pharmaceutical Company Limited, priority 2022, published 2026)
Read-outs that look alike come from different tables or passages of the source.

Tests used:
[1] = target: human activated kallikrein enzyme (Homo sapiens, UniProt P03952); test: Inhibition of human activated plasma kallikrein, fluorogenic PFR-AMC substrate, 500 pM enzyme format; format: biochemical; conditions: 300 μM PFR-AMC, 30 min preincubation, 10 min room temperature, pH 7.5
Sequence of human activated kallikrein enzyme (P03952 391-638 limits assumed): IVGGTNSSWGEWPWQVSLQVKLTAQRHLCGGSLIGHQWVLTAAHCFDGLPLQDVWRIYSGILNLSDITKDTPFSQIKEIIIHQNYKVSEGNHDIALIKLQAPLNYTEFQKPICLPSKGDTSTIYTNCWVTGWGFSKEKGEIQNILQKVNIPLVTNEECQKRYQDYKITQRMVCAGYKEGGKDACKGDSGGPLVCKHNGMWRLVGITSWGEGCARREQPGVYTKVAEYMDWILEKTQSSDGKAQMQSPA
Sequence of human activated kallikrein enzyme (P03952 20-390 partner limits assumed): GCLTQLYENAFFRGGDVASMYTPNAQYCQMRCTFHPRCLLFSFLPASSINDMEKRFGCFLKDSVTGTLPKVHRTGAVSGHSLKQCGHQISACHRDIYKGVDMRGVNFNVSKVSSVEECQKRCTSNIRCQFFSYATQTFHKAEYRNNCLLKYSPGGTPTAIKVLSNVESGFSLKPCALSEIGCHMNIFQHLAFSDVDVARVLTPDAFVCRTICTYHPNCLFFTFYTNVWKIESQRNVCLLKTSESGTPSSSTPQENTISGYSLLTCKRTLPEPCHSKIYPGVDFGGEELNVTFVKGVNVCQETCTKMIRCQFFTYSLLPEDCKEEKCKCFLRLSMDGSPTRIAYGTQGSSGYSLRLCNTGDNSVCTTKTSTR
Procedure, shortened: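 500 pM activated kallikrein preincubated 30 min at room temperature with inhibitors in pH 7.5 Tris/EDTA/NaCl buffer with PEG-400 and Triton X-100. Reaction started with 300 μM PFR-AMC, run 10 min at room temperature; AMC fluorescence read at ex 380/em 460 nm.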

plasma kallikrein = target: T1, plasma kallikrein (Homo sapiens, UniProt P03952); test: Neat Human Plasma Assay (Fluorogenic Peptide), contact pathway-activated (FXIIa) plasma; format: biochemical; conditions: human citrated plasma 78% final; 10 nM human FXIIa; PFR-AMC substrate; 5 minutes; room temperature
T1 construct: PFR-AMC substrate
T1 sequence (P03952 20-638): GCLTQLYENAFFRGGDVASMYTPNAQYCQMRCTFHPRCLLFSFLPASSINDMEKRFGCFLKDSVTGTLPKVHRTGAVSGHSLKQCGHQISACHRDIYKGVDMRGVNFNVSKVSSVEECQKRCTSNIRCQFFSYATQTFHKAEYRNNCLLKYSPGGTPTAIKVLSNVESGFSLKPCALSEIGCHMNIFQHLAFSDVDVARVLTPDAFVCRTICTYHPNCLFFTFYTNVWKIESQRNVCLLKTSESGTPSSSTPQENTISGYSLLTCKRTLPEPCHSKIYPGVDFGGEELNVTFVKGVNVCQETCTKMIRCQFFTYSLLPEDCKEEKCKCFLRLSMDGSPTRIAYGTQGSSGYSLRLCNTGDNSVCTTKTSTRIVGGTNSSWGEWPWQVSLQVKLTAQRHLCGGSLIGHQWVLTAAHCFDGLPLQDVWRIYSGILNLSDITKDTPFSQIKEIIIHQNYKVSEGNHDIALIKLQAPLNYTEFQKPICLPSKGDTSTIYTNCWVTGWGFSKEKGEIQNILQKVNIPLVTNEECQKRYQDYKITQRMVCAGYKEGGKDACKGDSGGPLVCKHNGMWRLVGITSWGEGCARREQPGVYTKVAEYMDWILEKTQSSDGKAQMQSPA
Description: To analyze inhibition of plasma kallikrein in an ex vivo setting, the potency of compounds was measure in contact pathway-activated plasma assays. In a fluorogenic peptide substrate assay, test compounds dissolved in DMSO were added to sodium citrate collected human or rat plasma in a 96-well microplate. Alternatively, citrated plasma was collected from rats administered the compounds orally or by IV. 10 nM of human FXIIa (Enzyme Research Laboratories) diluted in PKa buffer (20 mM Tris-HCl, pH 7.5, 150 mM NaCl, 1 mM EDTA, 0.1% PEG-8000, and 0.1% Triton X-100) was added to the plasma, followed by the […] of the profluorescent, synthetic plasma kallikrein substrate PFR-AMC (also diluted in PKa buffer). Final plasma concentration in the reaction was 78%. Fluorescence was immediately monitored by excitation/emission wavelengths of 360 nm/480 nm respectively over a period of 5 minutes in a microplate reader. The resulting linear increase in fluorescence emission (reflecting PKa proteolysis of PFR-AMC substrate) was fit to extract a proteolytic rate (fluorescent units over time), and this rate was subsequently plotted against compound inhibitor concentration. Resulting plots were fit to a standard 4-parameter IC50/IC90 equation to determine min/max values, IC50/90, and slope. All experimental steps were performed at room temperature.

[2] = 500 pM activated kallikrein, read-out: Primary Dose Response Assay: Average EC50

SMILES | EC50 [1, 2] [nM] | IC90 (plasma kallikrein) [nM] | EC50 ([1]; Primary Dose Response Assay: Average EC50, 500 pM activated kallikrein) [nM]
Cc1cc2c(N)nccc2c(C)c1CNc1cc(OC(C)c2ccc(Cn3cccn3)cc2)cnn1 (single isomer, unassigned) [Example 276, (R*)-6-(((5-(1-(4-((1H-pyrazol-1-yl)methyl)phenyl)ethoxy)pyridazin-3-yl)amino)methyl)-5,7-dimethylisoquinolin-1-amine] | < 1 | ≤ 1000 | –
Cc1cc2c(N)nccc2c(C)c1CNC(=O)c1cnn(Cc2ccc3ncc(Cl)cc3c2)c1 [Example 89, N-((1-amino-5,7-dimethylisoquinolin-6-yl)methyl)-1-((3-chloroquinolin-6-yl)methyl)-1H-pyrazole-4-carboxamide] | < 1 | ≤ 1000 | –
Cc1cc2c(N)nccc2c(C)c1CNC(=O)c1cnn(Cc2cn3cc(Cl)ccc3n2)c1 [Example 101, N-((1-amino-5,7-dimethylisoquinolin-6-yl)methyl)-1-((6-chloroimidazo[1,2-a]pyridin-2-yl)methyl)-1H-pyrazole-4-carboxamide] | < 1 | ≤ 1000 | –
Cc1cnc2ccc(Cn3cc(C(=O)NCc4c(C)cc5c(N)nccc5c4C)cn3)cc2c1 [Example 115, N-((1-amino-5,7-dimethylisoquinolin-6-yl)methyl)-1-((3-methylquinolin-6-yl)methyl)-1H-pyrazole-4-carboxamide] | < 1 | ≤ 1000 | –
Cc1cc2c(N)nccc2c(C)c1CNC(=O)c1cnn(Cc2ccc(Cn3ccccc3=O)cc2)c1 [Example 192, N-((1-amino-5,7-dimethylisoquinolin-6-yl)methyl)-1-(4-((2-oxopyridin-1(2H)-y1)methyl)benzyl)-1H-pyrazole-4-carboxamide] | < 1 | ≤ 1000 | –
Cc1cc2c(N)nccc2c(C)c1CNC(=O)c1cn(Cc2ccc(N3CCCC3)nc2)nc1C(F)(F)F [Example 194, N-((1-amino-5,7-dimethylisoquinolin-6-yl)methyl)-1-((6-(pyrrolidin-1-yl)pyridin-3-yl)methyl)-3-(trifluoromethyl)-1H-pyrazole-4-carboxamide] | 1 to 10 | > 5000 | –
Cc1cc2c(N)nccc2c(C)c1CNC(=O)c1cnn(Cc2ccc(CC(=O)N3CC4CC4C3)cc2)c1 (stereo not shown) [Example 222, 1-(4-(2-(3-azabicyclo[3.1.0]hexan-3-yl)-2-oxoethyl)benzyl)-N-((1-amino-5,7-dimethylisoquinolin-6-yl)methyl)-1H-pyrazole-4-carboxamide] | < 1 | 1000 to 5000 | –
Cc1cc2c(N)nccc2c(C)c1CNc1cc(NCc2ccc(Cn3ccccc3=O)cc2)cnn1 [Example 236, 1-(4-(((6-(((1-amino-5,7-dimethylisoquinolin-6-yl)methyl)amino)pyridazin-4-yl)amino)methyl)benzyl)pyridin-2(1H)-one] | < 1 | ≤ 1000 | –
Cc1cc2c(N)nccc2c(C)c1CNc1cc(OCc2ccc3ncc(C4CC4)cc3c2)ccn1 [Example 239, 6-(((4-((3-cyclopropylquinolin-6-yl)methoxy)pyridin-2-yl)amino)methyl)-5,7-dimethylisoquinolin-1-amine] | 1 to 10 | > 5000 | –
Cc1cc2c(N)nccc2c(C)c1CNc1nccnc1NCc1cn2cc(C3CC3)ccc2n1 [Example 240] | 1 to 10 | 1000 to 5000 | –
Cc1cc2c(N)nccc2c(C)c1CNc1cc(NCc2cn3nc(C4CC4)ccc3n2)ncn1 [Example 242, N4-((1-amino-5,7-dimethylisoquinolin-6-yl)methyl)-N6-((6-cyclopropylimidazo[1,2-b]pyridazin-2-yl)methyl)pyrimidine-4,6-diamine] | < 1 | 1000 to 5000 | –
Cc1cc2c(N)nccc2c(C)c1CNc1cc(NCc2cc3cc(C4CC4)cnc3s2)ncn1 [Example 243, N4-((1-amino-5,7-dimethylisoquinolin-6-yl)methyl)-N6-((5-cyclopropylthieno[2,3-b]pyridin-2-yl)methyl)pyrimidine-4,6-diamine] | < 1 | ≤ 1000 | –
Cc1cc2c(N)nccc2c(C)c1CNc1cc(NCc2cc3cc(C4CC4)ccn3n2)ncn1 [Example 244] | < 1 | 1000 to 5000 | –

The remaining lines, values ahead:

EC50 [1, 2] [nM] | IC90 (plasma kallikrein) [nM] | EC50 ([1]; Primary Dose Response Assay: Average EC50, 500 pM activated kallikrein) [nM] | SMILES
100 to 1000 | – | – | Cc1cc2c(N)nccc2c(C)c1CNC(=O)c1cnn(C(F)(F)c2ccccc2)c1 [Example I-472, N-((1-amino-5,7-dimethylisoquinolin-6-yl)methyl)-1-(difluoro(phenyl)methyl)-1H-pyrazole-4-carboxamide]
< 1 | – | – | Cc1cc2c(N)nccc2c(C)c1CNC(=O)c1cnn(Cc2ccc(CC(=O)N3CCC3)c(Cl)c2)c1 [Example I-473, N-((1-amino-5,7-dimethylisoquinolin-6-yl)methyl)-1-(4-(2-(azetidin-1-yl)-2-oxoethyl)-3-chlorobenzyl)-1H-pyrazole-4-carboxamide]
< 1 | – | – | Cc1cc2c(N)nccc2c(C)c1CNC(=O)c1cnn(Cc2ccc(CC(=O)N3CC4CC4C3)c(Cl)c2)c1 (stereo not shown) [Example I-474, 1-(4-(2-(3-azabicyclo[3.1.0]hexan-3-yl)-2-oxoethyl)-3-chlorobenzyl)-N-((1-amino-5,7-dimethylisoquinolin-6-yl)methyl)-1H-pyrazole-4-carboxamide]
1 to 10 | – | – | Cc1cc2c(N)nccc2c(C)c1CNC(=O)c1cnn(Cc2ccc(C3CCN(C)C3=O)cc2)c1 (stereo not shown) [Example I-475, N-((1-amino-5,7-dimethylisoquinolin-6-yl)methyl)-1-(4-(1-methyl-2-oxopyrrolidin-3-yl)benzyl)-1H-pyrazole-4-carboxamide]
10 to 100 | – | – | Cc1cc2c(N)nccc2c(C)c1CNc1cncc(NCc2ccc(Cn3cccn3)cc2)n1 [Example I-476, N^2-(4-((1H-pyrazol-1-yl)methyl)benzyl)-N^6-((1-amino-5,7-dimethylisoquinolin-6-yl)methyl)pyrazine-2,6-diamine]
< 1 | – | – | Cc1cc2c(N)nccc2c(C)c1CNC(=O)c1cn(Cc2ccc(CC(=O)N3CC4CC4C3)cc2)nc1F (stereo not shown) [Example I-477, 1-(4-(2-(3-azabicyclo[3.1.0]hexan-3-yl)-2-oxoethyl)benzyl)-N-((1-amino-5,7-dimethylisoquinolin-6-yl)methyl)-3-fluoro-1H-pyrazole-4-carboxamide]
1 to 10 | – | – | Cc1cc2c(N)nccc2c(C)c1CNc1nccc(OCc2ccc(Cn3ccccc3=O)cc2)n1 [Example I-478, 1-(4-(((2-(((1-amino-5,7-dimethylisoquinolin-6-yl)methyl)amino)pyrimidin-4-yl)oxy)methyl)benzyl)pyridin-2(1H)-one]
< 1 | – | – | Cc1cc2c(N)nccc2c(C)c1CNC(=O)c1cn(Cc2ccc(CC(=O)N3CC4CC4C3)cc2)cc1F (stereo not shown) [Example I-479, 1-(4-(2-(3-azabicyclo[3.1.0]hexan-3-yl)-2-oxoethyl)benzyl)-N-((1-amino-5,7-dimethylisoquinolin-6-yl)methyl)-4-fluoro-1H-pyrrole-3-carboxamide]
100 to 1000 | – | – | CCOC(=O)N(Cc1ccc(Cn2ccccc2=O)cc1)c1cc(NCc2c(C)cc3c(N)nccc3c2C)ncn1 [Example I-480, ethyl (6-(((1-amino-5,7-dimethylisoquinolin-6-yl)methyl)amino)pyrimidin-4-yl)(4-((2-oxopyridin-1(2H)-yl)methyl)benzyl)carbamate]
> 1000 | – | – | CCOC(=O)Nc1nccc2c(C)c(CNc3cc(N(Cc4ccc(Cn5ccccc5=O)cc4)C(=O)OCC)ncn3)c(C)cc12 [Example I-481, ethyl (6-(((1-((ethoxycarbonyl)amino)-5,7-dimethylisoquinolin-6-yl)methyl)amino)pyrimidin-4-yl)(4-((2-oxopyridin-1(2H)-yl)methyl)benzyl)carbamate]
< 1 | – | – | C/C=C(/c1ccc(CNc2cc(NCc3c(C)cc4c(N)nccc4c3C)ncn2)cc1)n1cccn1 [Example I-483, (Z)—N^4-(4-(1-(1H-pyrazol-1-yl)prop-1-en-1-yl)benzyl)-N^6-((1-amino-5,7-dimethylisoquinolin-6-yl)methyl)pyrimidine-4,6-diamine]
< 1 | – | – | CCC(c1ccc(CNc2cc(NCc3c(C)cc4c(N)nccc4c3C)ncn2)cc1)n1cccn1 (stereo not shown) [Example I-484, N^4-(4-(1-(1H-pyrazol-1-yl)propyl)benzyl)-N^6-((1-amino-5,7-dimethylisoquinolin-6-yl)methyl)pyrimidine-4,6-diamine]
– | – | 1 to 10 | Cc1cc2c(N)nccc2c(C)c1CNC(=O)c1cn(Cc2cn3cc(C4CC4)ccc3n2)c2cccnc12 [Example I-485, N-((1-amino-5,7-dimethylisoquinolin-6-yl)methyl)-1-((6-cyclopropylimidazo[1,2-a]pyridin-2-yl)methyl)-1H-pyrrolo[3,2-b]pyridine-3-carboxamide]
1 to 10 | – | – | Cc1cc2c(N)nccc2c(C)c1CNc1cc(OCc2nc3ccc(C4CC4)cn3n2)nc(C(=O)O)n1 [Example I-486, 4-(((1-amino-5,7-dimethylisoquinolin-6-yl)methyl)amino)-6-((6-cyclopropyl-[1,2,4]triazolo[1,5-a]pyridin-2-yl)methoxy)pyrimidine-2-carboxylic acid]
